Test results reported in US11801240B2, “Combination therapies and uses thereof” (Tesaro, Inc., priority 2017, dated 2023).

Assays:
[1] = tested on: TNBC PDX model MAXF 857; test: Niraparib+bevacizumab and niraparib+cabozantinib combinations in TNBC PDX model MAXF 857; type: in vivo, mouse; details: for Tumor growth inhibition (TGI): MAXF 857, NMRI nude female mice, 5 weeks, bevacizumab 20 mg/kg iv qw, cabozantinib 30 mg/kg po qd, end of treatment
[2] = tested on: ovarian PDX model OVC134; test: Niraparib and cabozantinib combination in ovarian PDX model OVC134; type: in vivo, mouse
[3] = tested on: A2780 (BRCA wt, HRD−) ovarian cancer cell line-derived xenograft; test: Niraparib and cabozantinib combination in ovarian cancer cell line-derived xenograft model A2780; type: in vivo, mouse; details: A2780, Balb/C nude female mice, 2 weeks; niraparib 60 mg/kg po qd, cabozantinib 30 mg/kg po qd; end of treatment
[4] = tested on: A2780 (BRCA wt, HRD−) ovarian cancer cell line-derived xenograft; test: Niraparib and bevacizumab combination in ovarian cancer cell line-derived xenograft model A2780; type: in vivo, mouse; details: A2780, CB-17 SCID female mice, 2 weeks; niraparib 60 mg/kg po qd, bevacizumab 10 mg/kg iv qw; end of treatment
[5] = tested on: TNBC PDX model MAXF MX1

Row | Compound | Tumor growth inhibition (TGI) [1] | Tumor growth inhibition (TGI) ([2]; OVC134, Balb/C nude female mice, 7 weeks, cabozantinib 30 mg/kg po qd, end of treatment) | Tumor growth inhibition (TGI) [3] | Tumor growth inhibition (TGI) [4] | Tumor growth inhibition (TGI) ([5]; MAXF MX1, NMRI nude female mice, 5 weeks, niraparib 50 mg/kg po qd, end of treatment) | Sensitivity of the model to monotherapy (anti-tumor activity) ([5]; TNBC PDX model MAXF MX1, 5 weeks) | Sensitivity of the model to monotherapy (anti-tumor activity) ([2]; ovarian PDX model OVC134, 7 weeks) | Sensitivity of the model to monotherapy (anti-tumor activity) ([1]; TNBC PDX model MAXF 857, 5 weeks)
1 | COc1cc2nccc(Oc3ccc(NC(=O)C4(C(=O)Nc5ccc(F)cc5)CC4)cc3)c2cc1OC [cabozantinib] | 65% | 83% | 51% | – | – | – | – | –
2 | NC(=O)c1cccc2cn(-c3ccc([C@@H]4CCCNC4)cc3)nc12 [niraparib, (3S)-3-[4-{7-(aminocarbonyl)-2H-indazol-2-yl}phenyl]piperidine] | – | – | 18% | < 40% | 99% | very sensitive | very sensitive | –
3 | bevacizumab: recombinant humanized monoclonal antibody that can block angiogenesis and inhibit vascular endothelial growth factor A (VEGF-A) | 76% | – | – | 55% | – | – | – | very sensitive
